Several values for one entry are separate records, joined by “and”; a condition that tells them apart may be missing. Identical values can stand only once.

Series [1] in a line: β-cyclodextrin content of filtrates of cetirizine.2HCL/β-cyclodextrin reaction mixture (HPLC, ELSD). In kind it is physicochemical.
Series [2] in a line: Suspension homogeneity (visual) and chemical stability of cetirizine and β-cyclodextrin suspension with hydroxy acids, salts, NaOH. The settings on record: for Suspension homogeneity compared to control: visual. The protocol: The effect of different hydroxy acids, hydroxy acid salts and sodium hydroxide on the suspension homogeneity and also on the chemical stability of cetirizine in the suspensions was studied.
The cetirizine and β-cyclodextrin suspensions were prepared by stirring aqueous cetirizine solution with cyclodextrin and with the additives.

Series [3] in a line: Powder sample storage stability, impurities by HPLC (Example 9). It counts as physicochemical. As to conditions: 34 days, 40 degrees C., 75% relative humidity; cyclodextrin and cetirizine uncomplexed in same formulation. How it is done:
The four samples were stored in capped 50 mL Polyethylene Duma™ containers (Superfos Pharma Pack, Denmark) at 40 degrees C. and 75% relative humidity for 34 days, and were subsequently analysed by HPLC.

[4] abbreviates: molar ratio CTZ:Additive not calculated.

With `O=C(O)CC(O)(CC(=O)O)C(=O)O` [Citric acid], the “BCD content in the filtrate” value in series [1] (molar ratio CTZ:Additive 1:1) came out at 154 mg/mL. In series [2] (molar ratio CTZ:Additive 1:1), the “Suspension homogeneity compared to control” value is recorded as “no significant change”.
Regarding `O=C([O-])C(O)C(O)C(=O)[O-].[K+].[Na+]` (stereo not drawn) [K—Na-tartarate, Potassium-sodium-tartarate], in series [1] (molar ratio CTZ:Additive 1:5), the “BCD content in the filtrate” value was found to be 120 mg/mL. Moreover, the “Suspension homogeneity compared to control” value in series [2] (molar ratio CTZ:Additive 1:5) is “better”.
On to `O=C([O-])CC(O)(CC(=O)[O-])C(=O)[O-].[Na+].[Na+].[Na+]` [Na-citrate, Tri-sodium citrate], for which the “BCD content in the filtrate” value in series [1] (molar ratio CTZ:Additive 1:4) was found to be 135 mg/mL. Besides, the “Chemical degradations affecting β-cyclodextrin and cetirizine component of the binary formulation” value in series [2] (effective amount of additive 3-6% by weight) is on record as “effectively suppressed”. Besides, the “Suspension homogeneity compared to control” value in series [2] (molar ratio CTZ:Additive 1:1), in series [2] (molar ratio CTZ:Additive 1:2), in series [2] (molar ratio CTZ:Additive 1:3) and in series [2] (molar ratio CTZ:Additive 1:4) was “better” in each case.
With `[Na+].[OH-]` [NaOH, Sodium hydroxide], in series [1] (setting [4]), the “BCD content in the filtrate” value was 115 mg/mL and 125 mg/mL. Further, the “Suspension homogeneity compared to control” value in series [2] (setting [4]) is “no significant change”.
On to `O=C(O)C(O)C(O)C(=O)O` (stereo not drawn) [Tartaric acid], for which the “BCD content in the filtrate” value in series [1] (molar ratio CTZ:Additive 1:2) is 130 mg/mL. The “Suspension homogeneity compared to control” value in series [2] (molar ratio CTZ:Additive 1:2) is given as “better”.
On to `OC[C@H]1O[C@@H]2O[C@H]3[C@H](O)[C@@H](O)[C@@H](O[C@H]4[C@H](O)[C@@H](O)[C@@H](O[C@H]5[C@H](O)[C@@H](O)[C@@H](O[C@H]6[C@H](O)[C@@H](O)[C@@H](O[C@H]7[C@H](O)[C@@H](O)[C@@H](O[C@H]8[C@H](O)[C@@H](O)[C@@H](O[C@H]1[C@H](O)[C@H]2O)O[C@@H]8CO)O[C@@H]7CO)O[C@@H]6CO)O[C@@H]5CO)O[C@@H]4CO)O[C@@H]3CO` [un-complexed cyclodextrin, Beta-cyclodextrin], for which the “Effect on the stability of cetirizine” value in series [3] was “does not have any significant effect”.

These data come from US20100260818A1, “STABLE MEDICATED CHEWING GUM COMPRISING CYCLODEXTRIN INCLUSION COMPLEX” (FERTIN PHARMA A/S, priority 2007, published 2010).
